Legend:
Format in all cases: in vivo
[1] = test system: corn planthopper (Peregrinus maidis); experiment: Test F: control of corn planthopper through contact and/or systemic means, spray on corn; details: 144 h
Method: For evaluating control of corn planthopper (Peregrinus maidis) through contact and/or systemic means, the test unit consisted of a small open container with a 3-4 day old corn (maize) plant (spike) inside. White sand was added to the top of the soil prior to application. Test compounds were formulated and sprayed at 250 ppm and replicated three times as described for Test C. After spraying, the test units were allowed to dry for 1 hour before they were post-infested with 10-20 corn planthoppers (18- to 20-day old nymphs) by sprinkling them onto the sand with a salt shaker. A black, screened cap was placed on the top of the cylinder. The test units were held for 6 days in a growth chamber at 19-21° C. and 50-70% relative humidity. Each test unit was then visually assessed for insect mortality.

[2] = test system: potato leafhopper (Empoasca fabae Harris); experiment: Test D: control of potato leafhopper through contact and/or systemic means, spray on bean plant; details: 144 h
Method: For evaluating control of potato leafhopper (Empoasca fabae Harris) through contact and/or systemic means, the test unit consisted of a small open container with a 5-6 day old Longio bean plant (primary leaves emerged) inside. White sand was added to the top of the soil and one of the primary leaves was excised prior to application. Test compounds were formulated and sprayed at 250 ppm and replicated three times as described for Test C. After spraying, the test units were allowed to dry for 1 hour before they were post-infested with 5 potato leafhoppers (18 to 21 day old adults). A black, screened cap was placed on the top of the cylinder. The test units were held for 6 days in a growth chamber at 19-21° C. and 50-70% relative humidity. Each test unit was then visually assessed for insect mortality.

[3] = test system: green peach aphid (Myzus persicae); experiment: Test 1 (I): xylem movement from soil application, green peach aphid mortality (radish); details: for % GPA M (green peach aphid mortality): 1000 ppm, 1 mL to soil at base of radish plant, infested after 2 days, held 5 additional days
Excerpt: (§1) For evaluating movement of compounds in plants and control of green peach aphid (Myzus persicae) and potato leafhopper (Empoasca fabae) after xylem movement of compound from soil application up through roots into foliage, the test unit consisted of a small open container with a 12-15-day-old radish plant (for green peach aphid test) or 5-6-day-old Longio bean plant (for potato leafhopper test).
(§2) Test compounds were formulated using a solution containing 10% acetone, 90% water and 600 ppm X-77® Spreader Lo-Foam Formula non-ionic surfactant containing alkylarylpolyoxyethylene, free fatty acids, glycols and isopropanol (Loveland Industries, Inc.). The formulated compounds were applied in 1 mL of solution by pipet to the soil at the base of the plant. All experimental compounds in this screen were applied at 1000 ppm, and the tests were replicated three times. After applying the formulated test compounds, each test unit was allowed to dry for 1 h. The soil of each test unit was covered with a layer of sand and then a black, screened cap was placed on top. The test units were held in a growth chamber at about 20° C. and 50-70% relative humidity.
(§3) After 2 days, the plants were then infested with 20-30 aphids (radish) or 20 leafhoppers (bean) and held in the growth chamber for 5 additional days. Each test unit was then visually assessed for mortality of the insects, which had contacted and fed on the untreated plant foliage.

[4] = test system: green peach aphid (Myzus persicae); experiment: Test C: control of green peach aphid through contact and/or systemic means, spray on radish; details: 144 h
Excerpt: For evaluating control of green peach aphid (Myzus persicae) through contact and/or systemic means, the test unit consisted of a small open container with a 12-15-day-old radish plant inside. This was pre-infested by placing on a leaf of the test plant 30-40 aphids on a piece of leaf excised from a culture plant (cut-leaf method). The larvae moved onto the test plant as the leaf piece desiccated. After pre-infestation, the soil of the test unit was covered with a layer of sand.
Test compounds were formulated using a solution containing 10% acetone, 90% water and 300 ppm X-77® Spreader Lo-Foam Formula non-ionic surfactant containing alkylarylpolyoxyethylene, free fatty acids, glycols and isopropanol (Loveland Industries, Inc.). The formulated compounds were applied in 1 mL of liquid through a SUJ2 atomizer nozzle with ⅛ JJ custom body (Spraying Systems Co.) positioned 1.27 cm (0.5 inches) above the top of each test unit. All experimental compounds in this screen were sprayed at 250 ppm, replicated three times. After spraying of the formulated test compound, each test unit was allowed to dry for 1 hour and then a black, screened cap was placed on top. The test units were held for 6 days in a growth chamber at 19-21° C. and 50-70% relative humidity. Each test unit was then visually assessed for insect mortality.

[5] = test system: potato leafhopper (Empoasca fabae); experiment: Test 1 (I): xylem movement from soil application, potato leafhopper mortality (bean); details: for % PLH M (potato leafhopper mortality): 1000 ppm, 1 mL to soil at base of bean plant, infested after 2 days, held 5 additional days
Excerpt: as §1, §2, §3

[6] = test system: green peach aphid (Myzus persicae); experiment: Test H: foliar movement of compound through the plant, green peach aphid mortality (radish); details: applied at 1000 ppm, 20 microliters by pipet to two leaves of radish plant; infested after 2 days, held 8 additional days; insects fed on untreated plant tissues
Excerpt: as §1, with “foliar” for “xylem”, “compound” for “compound from soil application up”, “the plant,” for “roots into foliage,”, “5-6 day old” for “5-6-day-old”
as §2, with “20 microliters” for “1 mL of solution”, “two larger photosynthetically active leaves.” for “the soil at the base of the plant.”, “the” for “each test unit was allowed to dry for 1 h. The”, “sand and each test unit was allowed to dry for 1 hr” for “sand”
(§4) After 2 days, the treated leaves were covered on all sides with a fine plastic mesh, but with the leaf petiole intact and still attached to the plant to allow normal vascular movement and photosynthesis. The plants were then infested with 20-30 aphids (radish) or 20 leafhoppers (bean) and held in the growth chamber for 8 additional days. Each test unit was then visually assessed for mortality of the insects, which had contacted and fed on the untreated plant tissues.

[7] = test system: potato leafhopper (Empoasca fabae); experiment: Test H: foliar movement of compound through the plant, potato leafhopper mortality (bean); details: applied at 1000 ppm, 20 microliters by pipet to two leaves of bean plant; infested after 2 days, held 8 additional days; insects fed on untreated plant tissues
Excerpt: as §1, with “foliar” for “xylem”, “compound” for “compound from soil application up”, “the plant,” for “roots into foliage,”, “5-6 day old” for “5-6-day-old”
as §2, with “20 microliters” for “1 mL of solution”, “two larger photosynthetically active leaves.” for “the soil at the base of the plant.”, “the” for “each test unit was allowed to dry for 1 h. The”, “sand and each test unit was allowed to dry for 1 hr” for “sand”
as §4

[8] = test system: cotton melon aphid (Aphis gossypii); experiment: Test E: control of cotton melon aphid through contact and/or systemic means, spray on cotton; details: 144 h
Excerpt: For evaluating control of cotton melon aphid (Aphis gossypii) through contact and/or systemic means, the test unit consisted of a small open container with a 6-7-day-old cotton plant inside. This was pre-infested with 30-40 insects on a piece of leaf according to the cut-leaf method described for Test C, and the soil of the test unit was covered with a layer of sand.
Test compounds were formulated and sprayed at 250 ppm as described for Test D. The applications were replicated three times. After spraying, the test units were maintained in a growth chamber and then visually rated as described for Test D.

`Cc1cc(C#N)cc(C(N)=O)c1NC(=O)c1cc(C(F)(F)F)nn1-c1ncccc1Cl` [Compound 1] was tested, and the mortality at 250 ppm [1] was ≥ 80%, the mortality at 250 ppm [2] was ≥ 80% and the mortality at 1000 ppm ([3]; Myzus persicae, soil, read-out: % GPA M (green peach aphid mortality)) was 64%. For the same molecule, the mortality at 250 ppm [4] was ≥ 80%, the mortality at 1000 ppm ([5]; Empoasca fabae, soil, read-out: % PLH M (potato leafhopper mortality)) was 100% and the “% GPA M (green peach aphid mortality)” value [6] was 87%. The “% PLH M (potato leafhopper mortality)” value [7] was 58% and the mortality at 250 ppm [8] was ≥ 80%.
For `CNC(=O)c1cc(C#N)cc(C)c1NC(=O)c1cc(C(F)(F)F)nn1-c1ncccc1Cl` [Compound 2], the “% GPA M (green peach aphid mortality)” value [3] was 64% and the “% PLH M (potato leafhopper mortality)” value [5] was 56%.
In the case of `CNC(=O)c1cc(C#N)cc(C)c1NC(=O)c1cc(Cl)nn1-c1ncccc1Cl` [Compound 3], the “% GPA M (green peach aphid mortality)” value [6] is reported as 81% and the “% PLH M (potato leafhopper mortality)” value [7] is reported as 96%.
For `Cc1cc(C#N)cc(C(N)=O)c1NC(=O)c1cc(Cl)nn1-c1ncccc1Cl` [Compound 4], the “% GPA M (green peach aphid mortality)” value [6] was 78% and the “% PLH M (potato leafhopper mortality)” value [7] was 93%.
For `CNC(=O)c1cc(C#N)cc(C)c1NC(=O)c1cc(Br)nn1-c1ncccc1Cl` [Compound 5], the “% GPA M (green peach aphid mortality)” value [3] was 40%, the “% PLH M (potato leafhopper mortality)” value [5] was 95% and the “% GPA M (green peach aphid mortality)” value [6] was 94%. For the same molecule, the “% PLH M (potato leafhopper mortality)” value [7] was 96%.
For `Cc1cc(C#N)cc(C(N)=O)c1NC(=O)c1cc(Br)nn1-c1ncccc1Cl` [Compound 6], the “% GPA M (green peach aphid mortality)” value [3] was 59%, the “% PLH M (potato leafhopper mortality)” value [5] was 100% and the “% GPA M (green peach aphid mortality)” value [6] was 100%. For the same molecule, the “% PLH M (potato leafhopper mortality)” value [7] was 77%.
For `Cc1cc(C#N)cc(C(=O)NCC#N)c1NC(=O)c1cc(Cl)nn1-c1ncccc1Cl` [Compound 26], the “% GPA M (green peach aphid mortality)” value [6] was 67% and the “% PLH M (potato leafhopper mortality)” value [7] was 73%.
`Cc1cc(C#N)cc(C(=O)NCC#N)c1NC(=O)c1cc(Br)nn1-c1ncccc1Cl` [Compound 27] was tested, and the “% GPA M (green peach aphid mortality)” value [6] was 57% and the “% PLH M (potato leafhopper mortality)” value [7] was 13%.
